Literature values as cited in patent US20250041478A1, “FIBROUS POLYPEPTIDE-BASED BIOSCAFFOLD DELIVERY OF THERAPEUTICS TO NEURAL CELLS” (priority 2023, published 2025).
Structures can show the parent of a compound that is named as a salt.

Details: in vivo

- plasma half-life: 11 to 23 h
SMILES: CN(C)c1ccc(O)c2c1C[C@H]1C[C@H]3[C@H](N(C)C)C(O)=C(C(N)=O)C(=O)[C@@]3(O)C(O)=C1C2=O [MH, minocycline hydrochloride]
